Key:
rats = settings: oral administration to rats, cited from earlier work
Sarcoma 180 cancer cells = assay: Determination of Cancer Growth Inhibitory Effect (Sarcoma 180 solid cancer in ICR mice); assay type: in vivo; settings: Sarcoma 180 subcutaneous graft, 30 mg/kg per day intraperitoneally for 10 days, tumor weight after 5 weeks
Description: (§1) First, 1 wt % aqueous solutions of the respective polysaccharides obtained in the above Preparation Examples were prepared. A cationic ion exchange resin was added to each solution to convert the counter ions of carboxyl group of glucuronic acid residue in the polysaccharide into hydrogen ions, and then the solution was neutralized with sodium hydroxide to replace the counter ions with sodium ions, then passed through a 0.2 μm-opening membrane filter and freeze-dried. The resulting polysaccharide preparations were subjected to the following tests.

TNF = assay: Measurement of Tumor Necrosis Factor (TNF) inducibility; assay type: in vivo; settings: serum 90 minutes after injection, 100 μg/0.2 ml intravenously, MDP-primed C3H/He mice; average value ± standard deviation
Description: as §1
(§2) These mice were left under observation for anaphylaxis-like reaction and sudden death. After 90 minutes from the injection, blood was collected from the surviving mice to determine TNF and IL-6 activities in the serum. TNF activity was calculated on the basis of the ratio of activity of the actinomycin D-treated L-929 cells to that of rHuTNF (human recombination TNF) used as control, with the killing action of the said L-929 cells being taken as index, and indicated by ng/ml. In the case of IL-6 activity, the IL-6 dependent MH60.BSF2 cell growth stimulating action was taken as index, and the IL-6 activity was calculated on the basis of the calibration curves obtained from the test of IL-6 and control rHuIL-6, and indicated by U/ml.

[1] = test system: myeloma cell strain NS-1/Z; assay: Determination of Cytotoxic T Cell (CTL) Inducibility; assay type: in vivo, BALB/c mouse (target cells); C3H mice (effector cells); settings: 20 mg/kg/day, subcutaneous, four times, relative to physiological saline control
Description: as §1
The following test was conducted on the C3H mice and BALB/c mice which are different in H-2 haplotype.
The spleen lymphocytes (2×10^7) of the BALB/c mice were immunized in the abdominal cavities of the C3H mice (4 mice per group: N=4). Each of the test specimens shown in Table 5 was given subcutaneously to the back of each of the said C3H mice at a dose of 50 mg/kg or 20 mg/kg, once a day, four times in all, from the day before immunization till 2 days after immunization. As control, physiological saline was used instead of the test specimens. After 9 days, the spleen lymphocyte suspension was collected from the C3H mice. This lymphocyte suspension contained the cytotoxic T cells (hereinafter referred to as effector cells and abbreviated as E). Then, 10^4 cells of myeloma cell strain NS-1/Z (hereinafter abbreviated as T) derived from the BALB/c mouse into which β-galactosidase (β-gal) of Escherichia coli had been introduced, were mixed as target cells with the effector cells so that the E/T ratio would become 30, 60 or 120, and the mixture was kept in 0.2 ml of a medium RPMI-1640 at 37° C. for 4 hours. The activity of β-gal released into the supernatant by destruction of the target cells was measured, and the cytotoxicity by CTL was calculated from the following equation. [formula] A: released β-gal activity B: naturally released β-gal activity (enzyme release observed when no effector cells are present)
C: overall β-gal activity (T used is dissolved in 0.0425% Triton-X100 and the overall enzyme activity is measured.) [formula]

IL-6 = assay: Measurement of Interleukin (IL-6) inducibility; assay type: in vivo; settings: serum 90 minutes after injection, 100 μg/0.2 ml intravenously, MDP-primed C3H/He mice; average value ± standard deviation
Description: as §1, §2

C3H/He mice = assay: Observation for anaphylaxis-like reaction and sudden death in MDP-primed mice; assay type: in vivo; settings: 100 μg/0.2 ml intravenously, 4 hours after MDP
Description: as §1, §2

Q: For O=P1(N(CCCl)CCCl)NCCCO1 (stereo not shown) [Cyclophosphide], which “LD50 (female)” value (rats; female) is on record?
A: The value was 118 mg/kg.

Q: And the “LD50 (male)” value (rats; male)?
A: Its value is 100 mg/kg.

Q: Which “Cancer cell growth inhibition percentage” value (Sarcoma 180 cancer cells) does the source give for Lentinan here?
A: The value was 100%.

Q: Which TNF (TNF) does the source give for Schizophyllan here?
A: The TNF was 0 ± 0 ng/mL.

Q: What about the “Immunoactivating activity, E/T = 30” value ([1]; E/T = 30) of the same compound?
A: Its value is 5.5.

Q: And the “Immunoactivating activity, E/T = 60” value ([1]; E/T = 60)?
A: The value was 2.0.

Q: What about the “Immunoactivating activity, E/T = 120” value ([1]; E/T = 120) of the same compound?
A: Its value is 1.7.

Q: What about the IL-6 (IL-6) of the same compound?
A: Its IL-6 is 14.1 ± 2.2 U/ml.

Q: And the Anaphylaxis-like reaction (C3H/He mice)?
A: Its Anaphylaxis-like reaction is 0/3.

Q: And the Sudden death (C3H/He mice)?
A: Its Sudden death is 0/3.

Reference: patent US5760213A, “Immunoactivating agent” (Tayca Corporation, priority 1995, dated 1998)
